According to article PMC10535864, “Novel Aminopyrimidine-2,4-diones, 2-Thiopyrimidine-4-ones, and 6-Arylpteridines as Dual-Target Inhibitors of BRD4/PLK1: Design, Synthesis, Cytotoxicity, and Computational Studies” (Pharmaceuticals, 2023):
Like-named read-outs stand apart in the source and are kept apart here.

Columns and labels:
[1] = test system: normal Vero cells; assay: MTT cytotoxicity assay, normal Vero cells; type: cell-based; settings: Vero; for Toxicity %: MTT
Description: (§2) Using a six-dose MTT colorimetric assay [44, 66], all new synthetic compounds were tested for cytotoxicity against three cancer cell lines: MDA-MB-231 breast cancer cells, HT-29 colorectal adenocarcinoma cells, and U-937 renal cancer cells. […] These cell lines were supplied by ATCC (American Type Culture Collection) via the Holding company for biological products and vaccines (VACSERA, Cairo, Egypt). The reference control used was Methotrexate.
1.1.In-vitro cytotoxicity screening
(§3) Using a six-dose MTT colorimetric assay [44, 66], allnew synthetic compounds were tested for cytotoxicity against three cancer cell lines: MDA-MB-231 breast cancer cells,HT-29 colorectal adenocarcinoma cells, and U-937 renal
(§4) The cell lines were supplied by ATCC (American Type Culture Collection). The reference control used was Methotrexate. The cytotoxic activities of the examined compounds were quantified by inoculating a 96-well tissue culture plate with 1 X 10^5 cells / mL (100 uL/well) and incubating it at 37°C for 24 hours to develop a complete monolayer sheet. After forming a confluent sheet of cells, the growth medium was decanted from 96-well microtiter plates, and the cell monolayer was washed twice with wash media. Two-fold dilutions of tested samples were made in RPMI medium with 2% serum (maintenance medium), and 0.1 mL of each dilution was tested in different wells, with three wells serving as controls and receiving only maintenance medium. Following that, the plate was incubated at 37°C and examined. Cells were investigated for any physical signs of toxicity, such as partial or complete monolayer loss, rounding, shrinkage, or cell granulation. MTT solution was prepared (5mg/ml in PBS) (BIO BASIC CANADA INC), and 20 uL MTT solution was added to each well. After 5 minutes on a shaking table at150 rpm to thoroughly mix the MTT into the media, it was incubated (37C, 5% CO2) for 4 hours to allow the MTT to be metabolized. Formazan (MTT metabolic product) was resuspended in 200 uL DMSO and shaken at 150 rpm for 5 minutes to thoroughly mix the formazan into the solvent. The optical density was measured at 560 nm, and the background was subtracted at 620 nm. Finally, the IC50 of the test compound in comparison to the reference was calculated using the GraphPad Prism software.

[2] = MTT cytotoxicity assay, normal Vero cells; type: cell-based; settings: African green monkey, normal Vero cells, MTT
Description: as §2
1.1.In-vitro cytotoxicity screening
as §3, §4

[3] = biological target: T1, BRD4 (BD2) (Homo sapiens, UniProt O60885); assay: BRD4 inhibitory activity assay (AlphaLISA Bromodomain Assay); type: binding; settings: for %inh: BRD4 Lab Report;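 for all read-outs here: in vitro inhibition of recombinant BRD4 BD2 bromodomain binding to a BET bromodomain ligand, read by AlphaLISA proximity signal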
T1 construct: BRD4 (BD2) should be thawed on ice; purchased
Description: The BRD4 and PLK1 inhibitory assays were carried out in vitro in accordance with the manufacturer’s instructions; BRD4 was assessed using AlphaLISA Bromodomain Assay Protocol [67], and PLK1 kinase was tested using the ADP-Glo™ Kinase Assay Protocol [68], as detailed in the Supplementary file.
The BRD4 and PLK1 inhibitory assays were carried out in vitro in accordance with the manufacturer's instructions; BRD4 was assessed using AlphaLISA Bromodomain Assay Protocol [67], and PLK1 kinase was tested using the ADP-Glo™ Kinase Assay Protocol [68],
The master mixture was prepared as follows: N wells × (2.5 µL 3x BRD Homogeneous Assay Buffer 1 + 1 µL BET Bromodomain Ligand + 1.5 µL H2O). BRD4 (BD2) should be thawed on ice. Simply, the protein-containing tube was spined to recover the full content of the tube after the firstthaw. Both proteins should be aliquoted into single-use aliquots. Immediately, any remaining undiluted protein should be stored in aliquots at -80°C. BRD4 (BD2) was diluted in 1x BRD Homogeneous Assay Buffer 1 at 4 ng/µL. The diluted proteins were kept on ice until they were used. 5 µl of the master mixture is added to each well designated for the “Positive Control”, “Test Inhibitor”, and “Blank”. For the “Substrate Control”, 2.5 µL 3x BRD Homogeneous Assay Buffer 1 + 1 µL Non-acetylated Ligand 1 + 1.5 µL H2O is added. Each “Test Inhibitor” well received 2.5 µL of inhibitor solution, while the “Positive
Control”, “Substrate Control”, and “Blank” wells received 2.5 µL of the same solution without inhibitor (inhibitor buffer). Then, the “Blank” well is filled with 2.5 µL of 1x BRD Homogeneous Assay Buffer 1. After that, GSH
10 µL per well is added, the plate isshaken, and itis incubated at room temperature for 30 minutes. Streptavidin-
10 µL is added per well and incubated at room temperature for further 15 – 30 minutes [67]. The Alpha counts were read using the EnVision® multimode plate reader with the standard Alpha detection settings.

[4] = biological target: human recombinant PLK1 (Homo sapiens, UniProt P53350); assay: PLK1 inhibitory activity assay (ADP-Glo Kinase Assay); type: biochemical; settings: for %inh: PLK1 Lab Report
Chain of human recombinant PLK1 (P53350 whole entry): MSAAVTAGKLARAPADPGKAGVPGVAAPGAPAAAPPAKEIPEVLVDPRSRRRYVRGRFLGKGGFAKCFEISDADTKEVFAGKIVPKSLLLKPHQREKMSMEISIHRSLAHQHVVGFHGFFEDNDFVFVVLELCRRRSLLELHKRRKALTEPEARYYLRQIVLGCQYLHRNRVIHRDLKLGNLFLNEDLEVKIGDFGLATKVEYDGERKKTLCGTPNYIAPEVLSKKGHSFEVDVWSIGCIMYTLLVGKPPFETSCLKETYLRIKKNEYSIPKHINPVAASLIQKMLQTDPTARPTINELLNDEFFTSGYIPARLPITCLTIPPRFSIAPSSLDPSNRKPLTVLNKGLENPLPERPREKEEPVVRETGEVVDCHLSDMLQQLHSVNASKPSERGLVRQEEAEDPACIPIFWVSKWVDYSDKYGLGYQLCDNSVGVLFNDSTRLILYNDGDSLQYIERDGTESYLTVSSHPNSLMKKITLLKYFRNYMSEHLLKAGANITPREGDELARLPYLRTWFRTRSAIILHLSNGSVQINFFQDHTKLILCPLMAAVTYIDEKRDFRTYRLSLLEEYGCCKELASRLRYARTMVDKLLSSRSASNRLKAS

[5] = test system: U-937 renal cancer cells; assay: MTT cytotoxicity assay, U-937; type: cell-based; settings: for IC50: Homo sapiens, U-937;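 for all read-outs here: Six-dose MTT colorimetric assay on cell monolayers, formazan absorbance read at 560 nm with 620 nm background removed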
[6] = MTT cytotoxicity assay, U-937; type: cell-based; settings: Homo sapiens, U-937, U937, MTT;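 note: Six-dose MTT colorimetric assay on cell monolayers, formazan absorbance read at 560 nm with 620 nm background removed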
[7] = test system: MDA-MB-231 breast cancer cells; assay: MTT cytotoxicity assay, MDA-MB-231; type: cell-based
Summary of the method: (§1)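 Cells seeded at 1 X 10^5 cells/mL and grown 24 h at 37°C to a monolayer, then exposed to two-fold compound dilutions in RPMI with 2% serum, six doses. MTT added for 4 h at 37°C, formazan dissolved in DMSO, OD read at 560 nm minus 620 nm background. IC50 from dose-response.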

[8] = test system: HT-29 colorectal adenocarcinoma cells; assay: MTT cytotoxicity assay, HT-29; type: cell-based
Summary of the method: as §1

[9] = SI = IC50 normal cells (Vero)/IC50 cancer cells

**Q.** With `COc1ccc(/C(CBr)=N\c2c(N)n(Cc3ccccc3Cl)c(=O)[nH]c2=O)cc1` [Compound 6b, (E)-6-Amino-5-((2-bromo-1-(4-methoxyphenyl)ethylidene)amino)-1-(2-chlorobenzyl) pyrimidine-2,4(1H,3H)-dione] as the molecule, how does the IC50 ([1]; Chlorocebus sabaeus, supplement viability lab report) read?
**A.** The IC50 was 2060 nM.

**Q.** And the Toxicity % ([1]; 0.312 uM)?
**A.** Its Toxicity % is 0.9182%.

**Q.** And the Toxicity % ([1]; 0.625 uM)?
**A.** Its Toxicity % is 0.8782%.

**Q.** What about the Toxicity % ([1]; 1.25 uM) of the same molecule?
**A.** Its Toxicity % is 29.74%.

**Q.** What about the Toxicity % ([1]; 2.5 uM) of the same molecule?
**A.** The Toxicity % was 61.6%.

**Q.** What about the Toxicity % ([1]; 5 uM) of the same molecule?
**A.** The Toxicity % was 87.19%.

**Q.** And the Toxicity % ([1]; 10 uM)?
**A.** The Toxicity % was 93.85%.

**Q.** What about the IC50 ([2]; mean of three independent experiments ± SD, read-out: In Vitro Cytotoxicity against Normal Cells IC50 Value, Vero Cells) of the same molecule?
**A.** The IC50 was 1950 ± 50 nM.

**Q.** What about the viability at 0.312 µM ([2]; Vero, 0.312 uM) of the same molecule?
**A.** The viability at 0.312 µM was 99.1%.

**Q.** And the viability at 0.625 µM ([2]; Vero, 0.625 uM)?
**A.** The viability at 0.625 µM was 99.1%.

**Q.** And the viability at 1.25 µM ([2]; Vero, 1.25 uM)?
**A.** The viability at 1.25 µM was 70.3%.

**Q.** What about the viability at 2.5 µM ([2]; Vero, 2.5 uM) of the same molecule?
**A.** The viability at 2.5 µM was 38.4%.

**Q.** What about the viability at 5 µM ([2]; Vero, 5 uM) of the same molecule?
**A.** The viability at 5 µM was 12.8%.

**Q.** And the viability at 10 µM ([2]; Vero, 10 uM)?
**A.** The viability at 10 µM was 6.15%.

**Q.** And the “%inh” value ([3]; conc 0.01 (unit not given))?
**A.** Its value is 30%.

**Q.** And the “%inh” value ([3]; conc 0.1 (unit not given))?
**A.** Its value is 46%.

**Q.** And the “%inh” value ([3]; conc 1 (unit not given))?
**A.** The value was 67%.

**Q.** What about the “%inh” value ([3]; conc 10 (unit not given)) of the same molecule?
**A.** The value was 83%.

**Q.** And the “%inh” value ([3]; conc 100 (unit not given))?
**A.** The value was 94%.

**Q.** What about the IC50 ([3]; mean of three independent experiments, read-out: BRD4 IC50 ± SD) of the same molecule?
**A.** The IC50 was 77 ± 3 nM.

**Q.** What about the “%inh” value ([4]; conc 0.01 (unit not given)) of the same molecule?
**A.** Its value is 28%.

**Q.** What about the “%inh” value ([4]; conc 0.1 (unit not given)) of the same molecule?
**A.** The value was 40%.

**Q.** What about the “%inh” value ([4]; conc 1 (unit not given)) of the same molecule?
**A.** Its value is 65%.

**Q.** What about the “%inh” value ([4]; conc 10 (unit not given)) of the same molecule?
**A.** The value was 80%.

**Q.** What about the “%inh” value ([4]; conc 100 (unit not given)) of the same molecule?
**A.** The value was 94%.

**Q.** What about the IC50 ([4]; mean of three independent experiments, read-out: PLK1 IC50 ± SD) of the same molecule?
**A.** Its IC50 is 204 ± 9 nM.

**Q.** What about the IC50 ([5]; MTT, mean of three independent experiments ± SD, read-out: IC50 Value U-937) of the same molecule?
**A.** The IC50 was 1120 ± 20 nM.

**Q.** What about the IC50 ([5]; supplement viability lab report, U937, read-out: IC50 ± SD) of the same molecule?
**A.** The IC50 was 970 nM.

**Q.** What about the “Selectivity Indices (SI) U-937” value [5, 9] of the same molecule?
**A.** Its value is 1.74.

**Q.** What about the Toxicity % ([5]; U937, MTT, 0.312 uM) of the same molecule?
**A.** Its Toxicity % is 0.9259%.

**Q.** And the Toxicity % ([5]; U937, MTT, 0.625 uM)?
**A.** Its Toxicity % is 22.49%.

**Q.** And the Toxicity % ([5]; U937, MTT, 1.25 uM)?
**A.** The Toxicity % was 72%.

**Q.** And the Toxicity % ([5]; U937, MTT, 2.5 uM)?
**A.** Its Toxicity % is 87.8%.

**Q.** What about the Toxicity % ([5]; U937, MTT, 5 uM) of the same molecule?
**A.** Its Toxicity % is 89.6%.

**Q.** What about the Toxicity % ([5]; U937, MTT, 10 uM) of the same molecule?
**A.** Its Toxicity % is 90.31%.

**Q.** And the viability at 0.312 µM ([6]; 0.312 uM)?
**A.** Its viability at 0.312 µM is 99.1%.

**Q.** What about the viability at 0.625 µM ([6]; 0.625 uM) of the same molecule?
**A.** The viability at 0.625 µM was 77.5%.

**Q.** What about the viability at 1.25 µM ([6]; 1.25 uM) of the same molecule?
**A.** Its viability at 1.25 µM is 28%.

**Q.** What about the viability at 2.5 µM ([6]; 2.5 uM) of the same molecule?
**A.** The viability at 2.5 µM was 12.2%.

**Q.** And the viability at 5 µM ([6]; 5 uM)?
**A.** Its viability at 5 µM is 10.4%.

**Q.** What about the viability at 10 µM ([6]; 10 uM) of the same molecule?
**A.** Its viability at 10 µM is 9.69%.

**Q.** And the IC50 ([7]; Homo sapiens, MDA-MB-231, MTT, mean of three independent experiments ± SD, read-out: IC50 Value MDA-MB-231)?
**A.** Its IC50 is 1000 ± 20 nM.

**Q.** What about the viability at 0.312 µM ([7]; Homo sapiens, MDA-MB-231, MTT, 0.312 uM) of the same molecule?
**A.** Its viability at 0.312 µM is 84.9%.

**Q.** And the viability at 0.625 µM ([7]; Homo sapiens, MDA-MB-231, MTT, 0.625 uM)?
**A.** Its viability at 0.625 µM is 26.6%.

**Q.** And the viability at 1.25 µM ([7]; Homo sapiens, MDA-MB-231, MTT, 1.25 uM)?
**A.** Its viability at 1.25 µM is 10.2%.

**Q.** What about the viability at 2.5 µM ([7]; Homo sapiens, MDA-MB-231, MTT, 2.5 uM) of the same molecule?
**A.** The viability at 2.5 µM was 8.47%.

**Q.** What about the viability at 5 µM ([7]; Homo sapiens, MDA-MB-231, MTT, 5 uM) of the same molecule?
**A.** Its viability at 5 µM is 8.55%.

**Q.** And the viability at 10 µM ([7]; Homo sapiens, MDA-MB-231, MTT, 10 uM)?
**A.** The viability at 10 µM was 4.7%.

**Q.** What about the IC50 ([7]; Homo sapiens, supplement viability lab report, MDA-MB-231, read-out: IC50 ± SD) of the same molecule?
**A.** The IC50 was 630 nM.

**Q.** What about the Toxicity % ([7]; MDA-MB-231, MTT, 0.312 uM) of the same molecule?
**A.** Its Toxicity % is 15.07%.

**Q.** And the Toxicity % ([7]; MDA-MB-231, MTT, 0.625 uM)?
**A.** The Toxicity % was 73.45%.

**Q.** And the Toxicity % ([7]; MDA-MB-231, MTT, 1.25 uM)?
**A.** Its Toxicity % is 89.85%.

**Q.** What about the Toxicity % ([7]; MDA-MB-231, MTT, 2.5 uM) of the same molecule?
**A.** The Toxicity % was 91.53%.

**Q.** What about the Toxicity % ([7]; MDA-MB-231, MTT, 5 uM) of the same molecule?
**A.** The Toxicity % was 91.45%.

**Q.** And the Toxicity % ([7]; MDA-MB-231, MTT, 10 uM)?
**A.** Its Toxicity % is 95.3%.

**Q.** And the “Selectivity Indices (SI) MDA-MB-231” value ([7]; SI = IC50 normal cells (Vero)/IC50 cancer cells, ≥5 highly, >2 moderately, <2 non-selective)?
**A.** Its value is 1.95.

**Q.** What about the Toxicity % ([8]; HT29, MTT, 0.312 uM) of the same molecule?
**A.** Its Toxicity % is 0.3876%.

**Q.** What about the Toxicity % ([8]; HT29, MTT, 0.625 uM) of the same molecule?
**A.** The Toxicity % was 47.33%.

**Q.** And the Toxicity % ([8]; HT29, MTT, 1.25 uM)?
**A.** The Toxicity % was 95.82%.

**Q.** What about the Toxicity % ([8]; HT29, MTT, 2.5 uM) of the same molecule?
**A.** Its Toxicity % is 95.95%.

**Q.** And the Toxicity % ([8]; HT29, MTT, 5 uM)?
**A.** Its Toxicity % is 95.61%.

**Q.** And the Toxicity % ([8]; HT29, MTT, 10 uM)?
**A.** Its Toxicity % is 93.71%.

**Q.** And the viability at 0.312 µM ([8]; Homo sapiens, HT-29, HT29, MTT, 0.312 uM)?
**A.** The viability at 0.312 µM was 99.6%.

**Q.** What about the viability at 0.625 µM ([8]; Homo sapiens, HT-29, HT29, MTT, 0.625 uM) of the same molecule?
**A.** The viability at 0.625 µM was 52.7%.

**Q.** What about the viability at 1.25 µM ([8]; Homo sapiens, HT-29, HT29, MTT, 1.25 uM) of the same molecule?
**A.** Its viability at 1.25 µM is 4.18%.

**Q.** What about the viability at 2.5 µM ([8]; Homo sapiens, HT-29, HT29, MTT, 2.5 uM) of the same molecule?
**A.** Its viability at 2.5 µM is 4.05%.

**Q.** And the viability at 5 µM ([8]; Homo sapiens, HT-29, HT29, MTT, 5 uM)?
**A.** The viability at 5 µM was 4.39%.

**Q.** And the viability at 10 µM ([8]; Homo sapiens, HT-29, HT29, MTT, 10 uM)?
**A.** The viability at 10 µM was 6.29%.

**Q.** What about the IC50 ([8]; Homo sapiens, HT-29, MTT, mean of three independent experiments ± SD, read-out: IC50 Value HT-29) of the same molecule?
**A.** The IC50 was 1690 ± 10 nM.

**Q.** What about the IC50 ([8]; Homo sapiens, HT-29, supplement viability lab report, HT29, read-out: IC50 ± SD) of the same molecule?
**A.** The IC50 was 750 nM.

**Q.** And the “Selectivity Indices (SI) HT-29” value [8, 9]?
**A.** The value was 1.15.
